Test results taken from ChEMBL document CHEMBL1129226, “Synthesis of conformationally restricted progestational 13-ethylsteroids” (1997).

tested on: Oryctolagus cuniculus; test: In vivo activity using McPhail test after oral dose; type: functional

Row | SMILES | ED2 [mg/kg]
1 | C#C[C@]1(O)CCC2C3CCC4=CC(=O)CCC4C3[C@H]3CC(=C)[C@]21C3 (stereo partly drawn) | 1
2 | C#C[C@]1(O)CCC2C3CCC4=CC(=O)CCC4C3C(=C)CC21CC (stereo partly drawn) | 0.015
3 | C#C[C@]1(O)CCC2C3CCC4=CC(=O)CCC4C3[C@H]3C[C@H](C)[C@]21C3 (stereo partly drawn) | ~0.032
4 | C1=C2CC3(CCC2C2C(C1)C1CCC4(OCCO4)[C@@]14C[C@@H]2C[C@]41CO1)OCCO3 (stereo partly drawn) | >4
5 | C#C[C@]1(O)CCC2C3CCC4=CC(=O)CCC4C3[C@H]3C[C@@H](C)[C@]21C3 (stereo partly drawn) | 0.125
6 | C#C[C@]1(O)C=CC2C3CCC4=CC(=O)CCC4C3CCC21CC (stereo partly drawn) | 0.008
7 | C#C[C@]1(O)CCC2C3CCC4=CC(=O)CCC4C3CCC21CC (stereo partly drawn) | 0.04
8 | C#C[C@]1(O)CC[C@H]2[C@@H]3CCC4=CC(=O)CC[C@@H]4[C@H]3CC[C@@]21C [NORETHINDRONE] | ~0.5
